Residue numbers refer to the chain shown, from its start.
Legend:
488-D391K-GAC = molecular target: T1, 488-D391K-GAC (Mus musculus, UniProt D3Z7P3, D391K); assay: Real-time binding read-out by fluorescence quenching, dimer mutant; conditions: 20 nM 488-labeled protein, 968 titration
T1 construct: plasmid (residues 72-603 for GAC, 72-674 for KGA); His-tag with thrombin cleavage site (N, cleaved yes); made in house; host or cells: pET23a vector
T1 sequence (D3Z7P3 72-603 isoform D3Z7P3-2 D391K): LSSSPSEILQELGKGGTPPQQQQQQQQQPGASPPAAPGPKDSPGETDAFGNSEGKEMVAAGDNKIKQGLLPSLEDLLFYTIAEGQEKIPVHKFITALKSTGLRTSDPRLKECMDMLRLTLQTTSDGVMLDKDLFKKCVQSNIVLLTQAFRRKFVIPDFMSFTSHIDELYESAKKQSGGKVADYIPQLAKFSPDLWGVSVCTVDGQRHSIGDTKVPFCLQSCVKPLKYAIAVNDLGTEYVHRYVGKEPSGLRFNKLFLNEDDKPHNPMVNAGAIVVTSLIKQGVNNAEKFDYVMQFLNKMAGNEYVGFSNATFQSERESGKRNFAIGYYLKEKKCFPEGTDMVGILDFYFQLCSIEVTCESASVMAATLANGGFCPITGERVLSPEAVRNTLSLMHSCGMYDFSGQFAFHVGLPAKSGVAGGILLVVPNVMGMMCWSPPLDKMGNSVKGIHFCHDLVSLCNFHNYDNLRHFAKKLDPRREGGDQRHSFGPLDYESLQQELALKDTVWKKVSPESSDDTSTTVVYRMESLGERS
Procedure: (§1) Real-time fluorescence monitoring of 488-GAC fluorescence and NADH fluorescence was performed on a Varian Carry Eclipse Fluorometer, whereas small molecule inhibition and binding titrations were performed in a 96-well format using Grenier non-binding 96-well plates in a Tecan Saphire absorbance and fluorescence plate reader. Samples for monitoring real time binding of 968 to 488-GAC were prepared by adding 10 […] (490 nm excitation/520 nm emission). Similarly, this method was replicated for monitoring real time binding of 968 to KGA and mutant forms of GAC, namely 488-D391K-GAC and 488-K316E-D391K-R459E-GAC. Titrations of 968 with mutant forms of GAC were done in triplicate and quantified by the following equation
(§2) [formula] where F is the normalized fluorescence at given drug concentration (i.e., F/F0), and Fsat is the normalized fluorescence at saturating concentrations of drug, as shown in FIG. 7A. […] 10 nM WT GAC was added and allowed to equilibrate 2 minutes before beginning to monitor fluorescence of 488-GAC (490 nm excitation, 520 nm emission) and NADH fluorescence (340 nm excitation, 490 nm emission). […] The activity of GAC was indirectly measured by the NADH produced by the added glutamate dehydrogenase, which converts the product of glutaminase activity, glutamate, to α-ketoglutarate and ammonia through reducing NAD^+ to NADH. […]

[1] = molecular target: T2, 488-K316E-D391K-R459E-GAC (Mus musculus, UniProt D3Z7P3, D391K/K316E/R459E); assay: Real-time binding read-out by fluorescence quenching, monomer mutant; conditions: 20 nM 488-labeled protein, 968 titration
T2 construct: plasmid (residues 72-603 for GAC, 72-674 for KGA); His-tag with thrombin cleavage site (N, cleaved yes); made in house; host or cells: pET23a vector
T2 sequence (D3Z7P3 72-603 isoform D3Z7P3-2 K316E/D391K/R459E): T1 sequence (D3Z7P3 72-603 isoform D3Z7P3-2 D391K) with K245E, R388E
Procedure: as §1, with “10 μL” for “10”
as §2

Dbl-transformed MEFs = conditions: adapted from Wang et al. 2010; cited from earlier work

- binding to dimeric GAC (D391K) mutant (488-D391K-GAC): capable of binding
- binding to monomeric GAC (K316E-D391K-R459E) mutant, relative affinity [1]: highest affinity
SMILES: CN(C)c1ccc(C2Nc3ccc4ccccc4c3C3=C2C(=O)CC(C)(C)C3)cc1Br (stereo not drawn) [compound 968]
- inhibition of the ability of Dbl-transformed MEFs to form foci (Dbl-transformed MEFs): dose dependent

Source: US11046945B2, “Labeled glutaminase proteins, isolated glutaminase protein mutants, methods of use, and kit” (CORNELL UNIVERSITY, priority 2013, dated 2021)
